The results in this text go back to PubChem BioAssay AID344 (DTP/NCI, 2004).

This experiment has as its system mice, LPC-1 plasma cell tumor ip, median survival T/C. Briefly: NCI In Vivo Anticancer Drug Screen. Data for tumor model Lieberman Plasma Cell No. 1 (LPC-1) (intraperitoneal) in unknown mice. Particulars: endpoint: median survival time, higher = longer survival. The protocol:
The antitumor activity of compounds was measured in mice bearing transplantable tumors. Survival or tumor size were measured and the results are expressed as the measurement made in the treated group (T) divided by the measurement made in the vehicle treated control group (C). The tumor model used in this assay is Lieberman Plasma Cell No. 1 (LPC-1) (intraperitoneal) in unknown mice

[1] abbreviates: dose: 33.0 mg/kg/injection, schedule: Q01DX028 (sc), vehicle: carboxymethylcellulose (CMC).
Setting [2] is: dose: 2.0 mg/kg/injection, schedule: Q01DX028 (sc), vehicle: saline.
Setting [3] is: dose: 3.0 mg/kg/injection, schedule: Q01DX028 (sc), vehicle: saline.
Where [4] appears, read: dose: 8.4 mg/kg/injection, schedule: Q01DX028 (sc), vehicle: saline.

Where “and” joins values, the source holds several entries; their conditions need not be identical. Identical values can stand only once. Toxic doses and inconclusive results are not listed.

As to `CS(=O)(=O)OCCN(CCOS(C)(=O)=O)c1ccccc1`, the T/C is 113 % of control (dose: 3.12 mg/kg/injection, schedule: Q01DX028 (sc), vehicle: carboxymethylcellulose (CMC)); 161 % of control (dose: 6.25 mg/kg/injection, schedule: Q01DX028 (sc), vehicle: carboxymethylcellulose (CMC)); 155 % of control (dose: 12.5 mg/kg/injection, schedule: Q01DX028 (sc), vehicle: carboxymethylcellulose (CMC)); 184 % of control (dose: 15.0 mg/kg/injection, schedule: Q01DX028 (sc), vehicle: carboxymethylcellulose (CMC)); 194 % of control (dose: 22.0 mg/kg/injection, schedule: Q01DX028 (sc), vehicle: carboxymethylcellulose (CMC)); 105 % of control (dose: 25.0 mg/kg/injection, schedule: Q01DX028 (sc), vehicle: carboxymethylcellulose (CMC)). In addition, the T/C under setting [1] was 110 % of control.
Take `CO[C@@]12[C@H](COC(N)=O)C3=C(C(=O)C(C)=C(N)C3=O)N1C[C@@H]1N[C@@H]12`: the T/C is, setting by setting: (dose: 0.25 mg/kg/injection, schedule: Q01DX028 (sc), vehicle: saline) 191 % of control; (dose: 0.5 mg/kg/injection, schedule: Q01DX028 (sc), vehicle: saline) 161 % of control; (dose: 1.0 mg/kg/injection, schedule: Q01DX028 (sc), vehicle: saline) 111 % of control; under setting [2], 100 % of control.
For the molecule `COC1=C(N)C(=O)c2nc(-c3nc(C(=O)O)c(C)c(-c4ccc(OC)c(OC)c4O)c3N)ccc2C1=O`, the T/C (dose: 0.14 mg/kg/injection, schedule: Q01DX028 (sc), vehicle: other) was 100 % of control; the T/C (dose: 0.23 mg/kg/injection, schedule: Q01DX028 (sc), vehicle: other) was 113 % of control; the T/C (dose: 0.39 mg/kg/injection, schedule: Q01DX028 (sc), vehicle: other) is 115 % of control; the T/C (dose: 0.65 mg/kg/injection, schedule: Q01DX028 (sc), vehicle: other) was 115 % of control; the T/C (dose: 1.08 mg/kg/injection, schedule: Q01DX028 (sc), vehicle: other) was 94 % of control; the T/C (dose: 1.8 mg/kg/injection, schedule: Q01DX028 (sc), vehicle: other) is 100 % of control.
Turning to `COC12C(COC(N)=O)C3=C(C(=O)C(C)=C(N)C3=O)N1CC1C2N1C` (configuration not stated), the T/C is 124 % of control (dose: 0.7 mg/kg/injection, schedule: Q01DX028 (sc), vehicle: saline); 178 % of control under setting [2]; 156 % of control under setting [3].
`O=C(O)c1[nH]c(=O)[nH]c(=O)c1F`: the T/C runs as follows: (dose: 1.8 mg/kg/injection, schedule: Q01DX028 (sc), vehicle: saline) 180 % of control; under setting [3], 123 % of control; (dose: 5.0 mg/kg/injection, schedule: Q01DX028 (sc), vehicle: saline) 119 % of control; under setting [4], 97 % of control and 114 % of control; (dose: 14.0 mg/kg/injection, schedule: Q01DX028 (sc), vehicle: saline) 93 % of control and 104 % of control; (dose: 23.0 mg/kg/injection, schedule: Q01DX028 (sc), vehicle: saline) 95 % of control and 102 % of control. The T/C runs as follows: (dose: 39.0 mg/kg/injection, schedule: Q01DX028 (sc), vehicle: saline) 93 % of control; (dose: 65.0 mg/kg/injection, schedule: Q01DX028 (sc), vehicle: saline) 88 % of control.
Take `O=P1(N(CCCl)CCCl)NCCCO1` (configuration not stated): the T/C under setting [2] was 86 % of control; the T/C (dose: 3.12 mg/kg/injection, schedule: Q01DX028 (sc), vehicle: saline) is 109 % of control; the T/C (dose: 4.0 mg/kg/injection, schedule: Q01DX028 (sc), vehicle: saline) was 100 % of control; the T/C (dose: 6.0 mg/kg/injection, schedule: Q01DX028 (sc), vehicle: saline) was 114 % of control; the T/C (dose: 8.0 mg/kg/injection, schedule: Q01DX028 (sc), vehicle: saline) was 161 % of control; the T/C under setting [4] was 182 % of control and 184 % of control and 213 % of control. The T/C was 194 % of control (dose: 10.0 mg/kg/injection, schedule: Q01DX Z (sc), vehicle: saline); 243 % of control (dose: 12.0 mg/kg/injection, schedule: Q01DX028 (sc), vehicle: saline); 190 % of control (dose: 12.5 mg/kg/injection, schedule: Q01DX011 (sc), vehicle: saline); 229 % of control (dose: 12.5 mg/kg/injection, schedule: Q01DX024 (sc), vehicle: saline); 190 % of control (dose: 14.0 mg/kg/injection, schedule: Q01DX Z (sc), vehicle: saline); 150 % of control (dose: 15.62 mg/kg/injection, schedule: Q01DX010 (sc), vehicle: saline). The T/C was 167 % of control and 212 % of control (dose: 16.0 mg/kg/injection, schedule: Q01DX028 (sc), vehicle: saline); 155 % of control (dose: 20.0 mg/kg/injection, schedule: Q01DX Z (sc), vehicle: saline); 166 % of control (dose: 23.0 mg/kg/injection, schedule: Q01DX Z (sc), vehicle: saline); 114 % of control (dose: 24.0 mg/kg/injection, schedule: Q01DX028 (sc), vehicle: saline); 190 % of control (dose: 25.0 mg/kg/injection, schedule: Q01DX011 (sc), vehicle: saline); 91 % of control (dose: 25.0 mg/kg/injection, schedule: Q01DX015 (sc), vehicle: saline). The T/C (dose: 25.0 mg/kg/injection, schedule: Q01DX024 (sc), vehicle: saline) was 244 % of control; the T/C (dose: 31.25 mg/kg/injection, schedule: Q01DX010 (sc), vehicle: saline) is 186 % of control; the T/C (dose: 32.0 mg/kg/injection, schedule: Q01DX028 (sc), vehicle: saline) is 200 % of control and 208 % of control; the T/C (dose: 39.0 mg/kg/injection, schedule: Q01DX009 (sc), vehicle: saline) was 154 % of control; the T/C (dose: 39.0 mg/kg/injection, schedule: Q01DX Z (sc), vehicle: saline) is 150 % of control; the T/C (dose: 48.0 mg/kg/injection, schedule: Q01DX028 (sc), vehicle: saline) was 100 % of control. The T/C is, setting by setting: (dose: 50.0 mg/kg/injection, schedule: Q01DX009 (ip), vehicle: saline) 259 % of control and 88 % of control; (dose: 50.0 mg/kg/injection, schedule: Q01DX011 (sc), vehicle: saline) 190 % of control; (dose: 50.0 mg/kg/injection, schedule: Q01DX015 (sc), vehicle: saline) 211 % of control; (dose: 50.0 mg/kg/injection, schedule: Q01DX024 (sc), vehicle: saline) 223 % of control; (dose: 64.0 mg/kg/injection, schedule: Q01DX028 (sc), vehicle: saline) 168 % of control; (dose: 65.0 mg/kg/injection, schedule: Q07DX004 (sc), vehicle: saline) 197 % of control. Further, the T/C (dose: 125.0 mg/kg/injection, schedule: Q01DX010 (sc), vehicle: saline) was 100 % of control; the T/C (dose: 128.0 mg/kg/injection, schedule: Q01DX028 (sc), vehicle: saline) is 97 % of control; the T/C (dose: 180.0 mg/kg/injection, schedule: Q01DX028 (sc), vehicle: saline) was 97 % of control.
In the case of `O=NN(CCF)C(=O)NC1CCCCC1`, the T/C under setting [1] was 97 % of control.
In the case of `CC(=O)O[C@]1(C(C)=O)CC[C@H]2[C@@H]3C[C@H](C)C4=CC(=O)C=C[C@]4(C)[C@@]3(F)[C@@H](O)C[C@@]21C`, the T/C is 100 % of control (dose: 25.0 mg/kg/injection, schedule: Q01DX028 (sc), vehicle: steriod suspending solution); 97 % of control (dose: 50.0 mg/kg/injection, schedule: Q01DX028 (sc), vehicle: steriod suspending solution); 91 % of control (dose: 75.0 mg/kg/injection, schedule: Q01DX028 (sc), vehicle: steriod suspending solution); 97 % of control (dose: 100.0 mg/kg/injection, schedule: Q01DX028 (sc), vehicle: steriod suspending solution).
For the molecule `CS(=O)(=O)OCCN(CCOS(C)(=O)=O)c1ccc(C(=O)O)cc1`, the T/C by setting is: (dose: 20.0 mg/kg/injection, schedule: Q01DX028 (sc), vehicle: carboxymethylcellulose (CMC)) 205 % of control; (dose: 40.0 mg/kg/injection, schedule: Q01DX028 (sc), vehicle: carboxymethylcellulose (CMC)) 350 % of control; (dose: 55.0 mg/kg/injection, schedule: Q01DX028 (sc), vehicle: carboxymethylcellulose (CMC)) 255 % of control; (dose: 80.0 mg/kg/injection, schedule: Q01DX028 (sc), vehicle: carboxymethylcellulose (CMC)) 197 % of control; (dose: 180.0 mg/kg/injection, schedule: Q01DX028 (sc), vehicle: carboxymethylcellulose (CMC)) 105 % of control; (dose: 270.0 mg/kg/injection, schedule: Q01DX028 (sc), vehicle: carboxymethylcellulose (CMC)) 89 % of control.
